According to DBAASP:
≈ marks a conversion by molar mass, not a printed value. Blank lines part the entries; values can stand above or below the compound they belong to.

Key:
Experiment in all cases: ≥ marks a high value that may be exact or a test limit, other limits are often not marked, values filed in µg/mL are converted to µM
[1] = system: Bacillus subtilis
[2] = system: Escherichia coli
[3] = system: Klebsiella pneumoniae
[4] = system: Micrococcus luteus
[5] = system: Proteus mirabilis
[6] = system: Pseudomonas aeruginosa
[7] = system: Salmonella typhimurium
[8] = system: Shigella dysenteriae
[9] = system: Staphylococcus aureus
[10] = system: Staphylococcus epidermidis
[11] = system: Mycobacterium tuberculosis H37Rv
[12] = system: Acinetobacter baumannii
[13] = system: Enterococcus faecalis
[14] = system: Bacillus subtilis ATCC 6633
[15] = system: Escherichia coli ATCC 25922
[16] = system: Klebsiella pneumoniae ATCC 10031
[17] = system: Micrococcus luteus ATCC 10240
[18] = system: Pseudomonas aeruginosa ATCC 27853
[19] = system: Salmonella enterica subsp. enterica serovar Typhimurium ATCC 14028
[20] = system: Shigella dysenteriae ATCC 9752
[21] = system: Staphylococcus aureus ATCC 6538P
[22] = system: Staphylococcus aureus TK784
[23] = system: Staphylococcus epidermidis ATCC 12228
[24] = system: Bacillus cereus
[25] = system: Leuconostoc lactis
[26] = system: Listeria innocua
[27] = system: Pasteurella multocida
[28] = system: Streptococcus uberis
[29] = system: Serratia marcescens
[30] = system: Staphylococcus aureus ATCC 2592
[31] = system: Corynebacterium glutamicum ATCC 13032
[32] = system: Staphylococcus aureus ATCC 9144
[33] = system: Bacillus cereus ATCC 11778
[34] = system: Klebsiella aerogenes ATCC 13048
[35] = system: Staphylococcus aureus ATCC 29213

Structure (SMILES): CC(C)C[C@H](NC(=O)[C@H](Cc1c[nH]c2ccccc12)NC(=O)[C@H](Cc1c[nH]c2ccccc12)NC(=O)[C@H](CCCN=C(N)N)NC(=O)[C@H](CO)NC(=O)[C@H](CC(C)C)NC(=O)[C@H](CCCCN)NC(=O)[C@H](CCCCN)NC(=O)[C@@H](NC(=O)[C@H](C)N)C(C)C)C(=O)N[C@@H](CCCN=C(N)N)C(=O)N[C@@H](Cc1c[nH]c2ccccc12)C(=O)N[C@@H](Cc1c[nH]c2ccccc12)C(=O)N[C@@H](CCCCN)C(=O)N[C@@H](CCCCN)C(=O)O [AVKKLSRWWLRWWKK]
MIC [11]: 18.1 µM (≈ 37.5 µg/mL)

Structure (SMILES): CC(C)C[C@H](NC(=O)[C@@H](N)Cc1c[nH]c2ccccc12)C(=O)N[C@@H](CCCCN)C(=O)N[C@@H](CCCCN)C(=O)N[C@@H](Cc1c[nH]c2ccccc12)C(N)=O [WLKKW]
MIC [14]: ≥ 105 µM
MIC [15]: > 105 µM
MIC [16]: ≥ 105 µM
MIC [17]: ≥ 105 µM
MIC [18]: > 105 µM
MIC [19]: > 105 µM
MIC [20]: ≥ 105 µM
MIC [21]: ≥ 105 µM
MIC [22]: ≥ 105 µM
MIC [23]: > 105 µM

Structure (SMILES): CC[C@H](C)[C@H](NC(=O)[C@H](C)NC(=O)[C@@H]1CCCN1C(=O)[C@@H](NC(=O)[C@@H](NC(=O)[C@H](Cc1cnc[nH]1)NC(=O)[C@H](C)NC(=O)[C@H](C)NC(=O)[C@@H](NC(=O)[C@H](CCCCN)NC(=O)[C@H](C)NC(=O)[C@H](CC(C)C)NC(=O)[C@@H](NC(=O)CNC(=O)[C@H](Cc1ccccc1)NC(=O)[C@H](CC(C)C)NC(=O)CN)C(C)C)C(C)C)C(C)C)C(C)C)C(=O)N[C@@H](C)C(=O)N[C@@H](CCC(=O)O)C(=O)N[C@@H](Cc1cnc[nH]1)C(=O)N[C@@H](Cc1ccccc1)C(=O)O [GLFGVLAKVAAHVVPAIAEHF]
MIC [24]: ≥ 46.6 µM
MIC [13]: ≥ 46.6 µM
MIC [2]: > 46.6 µM
MIC [25]: 23.3 µM (≈ 50 µg/mL)
MIC [26]: ≥ 46.6 µM
MIC [4]: ≥ 46.6 µM
MIC [27]: ≥ 46.6 µM
MIC [9]: > 46.6 µM
MIC [10]: ≥ 46.6 µM
MIC [28]: ≥ 46.6 µM

Structure (SMILES): CC[C@H](C)[C@@H]1NC(=O)[C@H](CCCCN)NC(=O)[C@@H](NC(=O)[C@H](CCSC)NC(=O)[C@H](CC(C)C)NC(=O)[C@@H]2CCCN2C(=O)[C@H](Cc2ccccc2)NC(=O)[C@H](CC(C)C)NC(=O)[C@H](CC(C)C)NC(=O)[C@@H](N)Cc2ccccc2)CSSC[C@@H](C(=O)O)NC(=O)[C@H](CCCCN)NC(=O)CNC(=O)[C@H](CCC(N)=O)NC1=O [FLLFPLMCKIQGKC]
MIC [15]: > 60.9 µM
MIC [3]: > 60.9 µM
MIC [29]: ≥ 60.9 µM
MIC [30]: 22.9 µM (≈ 37.5 µg/mL)

Structure (SMILES): CC(C)[C@H](NC(=O)[C@@H](NC(=O)[C@H](CCCN=C(N)N)NC(=O)[C@H](CCCN=C(N)N)NC(=O)[C@H](Cc1c[nH]c2ccccc12)NC(=O)[C@H](Cc1c[nH]c2ccccc12)NC(=O)CN)[C@@H](C)O)C(=O)N[C@@H](CCCN=C(N)N)C(=O)N[C@@H](CCCCN)C(N)=O [GWWRRTVRK]
MIC [31]: 3.1 µM (≈ 3.85 µg/mL)
MIC [15]: 50 µM (≈ 62.2 µg/mL)
MIC [18]: 25 µM (≈ 31.1 µg/mL)
MIC [32]: ≥ 100 µM

Structure (SMILES): CC(C)C[C@H](NC(=O)[C@H](Cc1c[nH]c2ccccc12)NC(=O)[C@H](CCCCN)NC(=O)[C@H](CC(C)C)NC(=O)[C@H](CC(C)C)NC(=O)[C@H](Cc1c[nH]c2ccccc12)NC(=O)[C@@H](N)CCCCN)C(N)=O [KWLLKWL]
MIC [14]: 20.3 µM (≈ 20 µg/mL)
MIC [15]: 40.6 µM (≈ 40 µg/mL)
MIC [16]: ≥ 81.1 µM
MIC [17]: ≥ 81.1 µM
MIC [18]: 81.1 µM (≈ 79.9 µg/mL)
MIC [19]: > 81.1 µM
MIC [20]: ≥ 81.1 µM
MIC [21]: 20.3 µM (≈ 20 µg/mL)
MIC [22]: ≥ 81.1 µM
MIC [23]: 81.1 µM (≈ 79.9 µg/mL)

Continued, values first:

MIC [1]: ≥ 152 µM
MIC [2]: > 152 µM
MIC [3]: > 152 µM
MIC [4]: ≥ 152 µM
MIC [5]: ≥ 152 µM
MIC [6]: > 152 µM
MIC [7]: ≥ 152 µM
MIC [8]: ≥ 152 µM
MIC [9]: > 152 µM
MIC [10]: ≥ 152 µM
Structure (SMILES): CC(C)C[C@H](NC(=O)[C@H](C)NC(=O)CN)C(=O)N[C@@H](Cc1ccccc1)C(=O)N[C@@H](CCCCN)C(=O)N[C@H](C(=O)N[C@@H](C)C(=O)N[C@@H](CO)C(=O)N[C@@H](CCCCN)C(=O)N[C@H](C(=O)N[C@@H](CC(C)C)C(=O)N1CCC[C@H]1C(=O)N[C@@H](CO)C(=O)O)C(C)C)C(C)C [GALFKVASKVLPS]

MIC [12]: 1.33 µM (≈ 2.3 µg/mL)
MIC [13]: 1.56 µM (≈ 2.7 µg/mL)
MIC [6]: 0.753 µM (≈ 1.3 µg/mL)
MIC [9]: 2.49 µM (≈ 4.3 µg/mL)
Structure (SMILES): CC(C)C[C@H](NC(=O)[C@H](Cc1c[nH]c2ccccc12)NC(=O)[C@H](CCCCN)NC(=O)[C@H](CC(C)C)NC(=O)[C@H](CC(C)C)NC(=O)[C@H](CCCCN)NC(=O)[C@H](CCCN=C(N)N)NC(=O)[C@H](Cc1c[nH]c2ccccc12)NC(=O)[C@H](CCCCN)NC(=O)[C@@H](N)CCCCN)C(=O)N[C@@H](C)C(=O)N[C@@H](CCCCN)C(=O)N[C@@H](CCCCN)C(N)=O [KKWRKLLKWLAKK]

MIC [1]: ≥ 154 µM
MIC [2]: > 154 µM
MIC [3]: > 154 µM
MIC [4]: ≥ 154 µM
MIC [5]: ≥ 154 µM
MIC [6]: > 154 µM
MIC [7]: ≥ 154 µM
MIC [8]: ≥ 154 µM
MIC [9]: > 154 µM
MIC [10]: ≥ 154 µM
Structure (SMILES): CC(C)C[C@H](NC(=O)[C@H](C)NC(=O)CNC(=O)[C@H](CC(C)C)NC(=O)[C@@H](N)Cc1ccccc1)C(=O)N[C@@H](Cc1ccccc1)C(=O)N[C@@H](CCCCN)C(=O)N[C@H](C(=O)N[C@@H](Cc1c[nH]c2ccccc12)C(=O)N[C@@H](CO)C(=O)N[C@@H](CCCCN)C(=O)O)C(C)C [FLGALFKVWSK]

MIC [1]: 19.5 µM (≈ 25 µg/mL)
MIC [2]: 78.2 µM (≈ 100 µg/mL)
MIC [3]: 39.1 µM (≈ 50 µg/mL)
MIC [4]: 19.5 µM (≈ 25 µg/mL)
MIC [5]: ≥ 156 µM
MIC [6]: > 156 µM
MIC [7]: ≥ 156 µM
MIC [8]: ≥ 78.2 µM
MIC [9]: 9.77 µM (≈ 12.5 µg/mL)
MIC [10]: ≥ 39.1 µM
Structure (SMILES): CC(C)C[C@H](NC(=O)[C@H](C)NC(=O)CNC(=O)[C@H](CC(C)C)NC(=O)[C@@H](N)Cc1ccccc1)C(=O)N[C@@H](Cc1ccccc1)C(=O)N[C@@H](CCCCN)C(=O)N[C@H](C(=O)N[C@@H](C)C(=O)N[C@@H](Cc1c[nH]c2ccccc12)C(=O)N[C@@H](CCCCN)C(=O)O)C(C)C [FLGALFKVAWK]

MIC [1]: ≥ 156 µM
MIC [2]: > 156 µM
MIC [3]: > 156 µM
MIC [4]: ≥ 156 µM
MIC [5]: ≥ 156 µM
MIC [6]: > 156 µM
MIC [7]: ≥ 156 µM
MIC [8]: ≥ 156 µM
MIC [9]: > 156 µM
MIC [10]: ≥ 156 µM
Structure (SMILES): CC(C)C[C@H](NC(=O)[C@H](C)NC(=O)CNC(=O)[C@H](CC(C)C)NC(=O)[C@@H](N)Cc1ccccc1)C(=O)N[C@@H](Cc1ccccc1)C(=O)N[C@@H](CCCCN)C(=O)N[C@H](C(=O)N[C@@H](C)C(=O)N[C@@H](CO)C(=O)N[C@@H](CCCCN)C(=O)N[C@H](C(=O)O)C(C)C)C(C)C [FLGALFKVASKV]

MIC [33]: ≥ 66.5 µM
MIC [15]: 33.2 µM (≈ 50 µg/mL)
MIC [34]: ≥ 66.5 µM
MIC [19]: 66.5 µM (≈ 99.9 µg/mL)
MIC [35]: 33.2 µM (≈ 50 µg/mL)
Structure (SMILES): CC[C@H](C)[C@H](N)C(=O)N[C@@H](CC(C)C)C(=O)NCC(=O)N[C@@H](CCCCN)C(=O)N[C@@H](CC(C)C)C(=O)N[C@@H](Cc1c[nH]c2ccccc12)C(=O)N[C@@H](CCC(=O)O)C(=O)NCC(=O)N[C@@H](CC(C)C)C(=O)N[C@@H](CCCCN)C(=O)N[C@@H](CO)C(=O)N[C@@H](CC(C)C)C(=O)N[C@@H](Cc1ccccc1)C(N)=O [ILGKLWEGLKSLF]
